Source: patent US20080206311A1, “Sucrase Activity Inhibitor, Glucoamylase Activity Inhibitor and Food and Feed Containing the Same” (MITSUI SUGAR CO., LTD., priority 2005, published 2008)

Assays:
[1] = system: small-intestinal enzyme liquid; assay: Decomposition of a saccharide alone (control solution) by small-intestinal enzyme liquid; assay type: biochemical, rat
Experimental: (§1) Palatinose (trade name: Palatinose IC, ex Shin Mitsui Sugar Co., Ltd.) (test sample) was used as a sample for investigating each enzyme activity inhibitory effect. Maltose and sucrose were used as substrates for maltase and sucrose, respectively. The test sample and the substrates were dissolved in 0.1 M phosphate buffer (pH 6.8) at the concentration shown in Table 1 below to prepare test solutions (Solutions 4 and 5). Also, the test sample or the substrates were dissolved in 0.1 M phosphate buffer (pH 6.8), respectively to at the concentration shown in Table 1 below to prepare control solutions (Solution 1 for the test sample and Solutions 2 and 3 for the substrates).
(§2) Two grams of rat small-intestinal acetone powder (ex Sigma Corporation) were dissolved in 20 ml of 0.1 M phosphate buffer (pH 6.8), left standing one day at 5° C., and subsequently subjected to centrifugal separation (8000 rpm×15 min.). The supernatant was filtered through a 0.8 μm membrane filter to obtain a small-intestinal enzyme liquid. This liquid contained a mixture of enzymes present in small intestine, such as sucrose, glucoamylase, maltase, and isomaltase.
(§3) Each 0.25 ml of the small-intestinal enzyme liquid was added to each 5 ml of Solutions 1 through 5 and placed in a water bath at 37° C. to allow them to react for 60 min. while shaken at 60 strokes/min. After the reaction, they were heated in a boiling water bath for 3 min. for inactivation of the enzymes.
(§4) The glucose concentration in each solution after the reaction was measured using the F-kit Glucose (ex Roche). A liberated glucose concentration (g/l) was calculated by subtracting the blank value (0.1 M phosphate buffer alone) and the concentration of glucose originally contained in the test sample from each glucose concentration measured.
The fructose concentration was measured using the F-kit Fructose (ex Roche). The liberated fructose concentration, g/l, was obtained by subtracting the blank value (0.1 M phosphate buffer alone) from the resultant fructose concentration.
The procedures in Example 1 were repeated with the exception that palatinit, palatinose or isomaltose was used as a test sample and lactose was used as a substrate. The test samples and the substrate were dissolved in 0.1 M phosphate buffer (pH 6.8) to attain the concentration shown in Table 5 to thereby prepare three test solutions. Besides, each of the test samples or the substrate was dissolved in 0.1 M phosphate buffer (pH 6.8) to attain the concentration shown in Table 5 to thereby prepare control solutions. Each 5 ml of the aforementioned test solutions and the control solutions was subjected to the enzymatic reaction according to the same procedures as in Example 1. The glucose concentration, the fructose concentration and the galactose concentration were measured. The galactose concentration was measured using F-kit Galactose (ex Roche). The liberated galactose concentration, g/l, was calculated by subtracting the blank value (0.1 M phosphate buffer alone) from the measured galactose concentration.

[2] = target: T1, sucrose-isomaltase complex (Rattus norvegicus, UniProt P23739); assay: Confirmation test: decomposability of the sucrose-isomaltase complex (crude enzyme) on dextrin; assay type: biochemical; conditions: 37° C., 20 min
T1 construct: tissue Sigma Corporation; host or cells: rat small intestine (acetone powder); papain treatment, 45-65% ammonium sulfate cut, dialysis, DEAE-Cellulose fraction with highest sucrase activity
T1 sequence (P23739 33-1841 limits assumed, one chain of several): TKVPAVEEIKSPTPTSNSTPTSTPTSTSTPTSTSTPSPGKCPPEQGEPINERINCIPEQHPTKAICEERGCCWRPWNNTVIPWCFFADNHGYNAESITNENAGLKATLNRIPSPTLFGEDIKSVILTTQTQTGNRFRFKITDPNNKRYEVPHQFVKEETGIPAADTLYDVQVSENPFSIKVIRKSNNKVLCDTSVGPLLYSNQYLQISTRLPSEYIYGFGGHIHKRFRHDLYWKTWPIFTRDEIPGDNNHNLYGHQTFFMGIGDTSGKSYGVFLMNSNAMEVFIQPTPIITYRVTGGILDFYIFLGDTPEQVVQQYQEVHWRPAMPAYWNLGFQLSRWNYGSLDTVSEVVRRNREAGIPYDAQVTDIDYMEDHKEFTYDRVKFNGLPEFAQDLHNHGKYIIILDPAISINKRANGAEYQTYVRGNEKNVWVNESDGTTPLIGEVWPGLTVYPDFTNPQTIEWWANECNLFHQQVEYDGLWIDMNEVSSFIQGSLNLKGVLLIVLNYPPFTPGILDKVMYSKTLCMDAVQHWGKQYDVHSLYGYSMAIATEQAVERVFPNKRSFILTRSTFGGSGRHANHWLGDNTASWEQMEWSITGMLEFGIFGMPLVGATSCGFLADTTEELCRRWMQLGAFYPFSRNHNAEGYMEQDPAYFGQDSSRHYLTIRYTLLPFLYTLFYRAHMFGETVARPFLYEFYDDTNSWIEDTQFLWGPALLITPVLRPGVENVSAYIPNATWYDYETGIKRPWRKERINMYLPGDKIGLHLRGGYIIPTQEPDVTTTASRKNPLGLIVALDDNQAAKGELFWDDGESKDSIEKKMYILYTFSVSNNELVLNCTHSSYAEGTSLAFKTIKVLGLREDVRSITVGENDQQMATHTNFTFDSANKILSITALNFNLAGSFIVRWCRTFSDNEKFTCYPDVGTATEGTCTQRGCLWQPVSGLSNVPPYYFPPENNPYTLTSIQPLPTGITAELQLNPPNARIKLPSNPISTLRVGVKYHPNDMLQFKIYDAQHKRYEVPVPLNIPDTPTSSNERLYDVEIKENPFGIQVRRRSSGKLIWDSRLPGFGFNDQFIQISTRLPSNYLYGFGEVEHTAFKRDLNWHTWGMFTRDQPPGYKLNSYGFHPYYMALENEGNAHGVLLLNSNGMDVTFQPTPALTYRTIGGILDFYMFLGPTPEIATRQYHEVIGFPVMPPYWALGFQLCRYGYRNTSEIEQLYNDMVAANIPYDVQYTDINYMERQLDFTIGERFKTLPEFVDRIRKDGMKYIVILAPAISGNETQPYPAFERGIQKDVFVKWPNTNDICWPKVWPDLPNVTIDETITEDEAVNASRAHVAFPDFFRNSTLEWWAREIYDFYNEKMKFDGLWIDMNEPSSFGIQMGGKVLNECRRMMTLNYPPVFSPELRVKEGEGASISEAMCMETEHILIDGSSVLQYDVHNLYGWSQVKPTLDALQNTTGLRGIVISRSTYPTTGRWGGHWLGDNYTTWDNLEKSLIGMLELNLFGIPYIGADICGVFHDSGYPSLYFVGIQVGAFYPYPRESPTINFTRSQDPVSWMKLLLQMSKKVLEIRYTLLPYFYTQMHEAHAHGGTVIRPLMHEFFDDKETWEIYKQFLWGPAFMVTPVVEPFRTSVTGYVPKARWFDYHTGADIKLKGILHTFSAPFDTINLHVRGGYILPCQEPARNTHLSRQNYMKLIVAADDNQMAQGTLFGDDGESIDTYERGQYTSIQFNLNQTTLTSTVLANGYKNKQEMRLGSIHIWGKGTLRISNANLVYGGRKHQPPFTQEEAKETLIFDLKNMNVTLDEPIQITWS
Experimental: Decomposability of the sucrose-isomaltase complex on dextrin was investigated in order to confirm that decomposition of starch in the following Examples 4, 6 and 7 and Test Example 5 was attained by glucoamylase, but not by sucrose or isomaltase.
A. Extraction of a crude enzyme, sucrose-isomaltase complex Twenty grams of rat small-intestinal acetone powder (ex Sigma Corporation) were added to 180 ml of 50 mM potassium phosphate buffer (pH 7.0) and extracted for 4 hours while slowly stirred at room temperature, to which 6.5 ml of a cysteine solution (100 mg/10 ml) and 1.5 ml of a papain solution (MP Biomedicals, LLC 80 mg/2 ml) were subsequently added and the mixture was incubated at 37° C. for 1 hour to conduct a papain treatment. Then, a supernatant was recovered by centrifugal separation (8000 rpm×15 min.) and further filtered by aspiration using Toyo Filter Paper No. 2 to obtain 164 ml of a crude enzyme solution. Protein was precipitated at an ammonium sulfate concentration of 45% from the crude enzyme solution and then a supernatant was recovered by centrifugal separation (8000 rpm×15 min.). Next, ammonium sulfate was added to the supernatant up to a concentration of 65% to precipitate protein, and then the precipitate was recovered by centrifugal separation (8000 rpm×15 min.). […] The enzymatic activity was measured for each fraction and the fraction with the highest activity of a sucrose-isomaltase complex was recovered to obtain a 12 ml crude enzyme solution. The sucrose-isomaltase complex activity was determined by measuring a decomposition activity for sucrose in each fraction. […] A glucose concentration was determined using the F-kit Glucose (ex Roche) described in item D below. […]
A glucose concentration in each sample after the reaction was measured using the F-kit Glucose (ex Roche Corporation). A liberated glucose concentration (g/l) was calculated by subtracting a blank value (0.1 M phosphate buffer alone (pH 6.8)) and a concentration of glucose originally contained in the test sample (dextrin and sucrose) from the determined glucose concentration.

glucoamylase = assay: Glucoamylase activity inhibition with rat small-intestinal enzyme liquid, substrate soluble starch; assay type: biochemical; conditions: 5% soluble starch + 5% test sample
Experimental: as §2, §3, §4
(§5) Next, each of the liberated glucose concentration was input in the following equation to obtain decomposition inhibition ratio for maltase and sucrose. In the present tests, the substrates and the inhibitors were decomposed by enzymes present in the small-intestinal enzyme liquid. However, the enzymes decomposing the substrates are different from the enzymes decomposing the inhibitors. The decomposition inhibition ratio was determined as a measure for the inhibitory effect. When the inhibitor was added, the glucose concentration was lower than that seen when the substrate alone was reacted. A higher decomposition inhibition ratio means a stronger inhibitory effect.
(§6) Decomposition inhibition ratio,%={(A+B)−(AB)}+(A+B)×100 [Equation 1]
(§7) wherein (A+B) indicates a sum of a liberated glucose concentration in the control solution containing the test sample alone after the reaction (A) and a liberated glucose concentration in the control solution containing the substrate alone after the reaction (B); and (AB) indicates a liberated glucose concentration in the test solution containing the test sample (A) and the substrate (B), after the reaction.
The procedures in Example 1 were repeated with the exception that palatinose and palatinit were used as a test sample and soluble starch was used as a substrate. The test samples and the substrate were dissolved in 0.1 M phosphate buffer (pH 6.8) to attain the concentration shown in Table 6 to thereby prepare two test solutions. Besides, each of the test samples or the substrate was dissolved in 0.1 M phosphate buffer (pH 6.8) to attain the concentration shown in Table 6 to thereby prepare control solutions. Each 5 ml of the aforementioned test solutions and the control solutions was subjected to the enzymatic reaction according to the same procedures as in Example 1 and the liberated glucose concentration and the decomposition inhibition ratio were measured.
The procedures in Example 1 were repeated with the exception that trehalulose was used as a test sample and soluble starch was used as a substrate. The test sample and the substrate were dissolved in 0.1 M phosphate buffer (pH 6.8) to attain the concentration shown in Table 9 to thereby prepare a test solution. Besides, the test sample or the substrate was dissolved in 0.1 M phosphate buffer (pH 6.8) to attain the concentration shown in Table 9 to thereby prepare control solutions. Each 5 ml of the aforementioned test solution and the control solutions was subjected to the enzymatic reaction according to the same procedures as in Example 1 and the liberated glucose concentration and the decomposition inhibition ratio were measured.
The procedures in Example 1 were repeated with the exception that trehalose was used as a test sample and soluble starch was used as a substrate. […]

sucrase = target: T2, sucrase (Rattus norvegicus, UniProt P23739); assay: Sucrase activity inhibition with rat small-intestinal enzyme liquid, substrate sucrose; assay type: biochemical; conditions: 5% sucrose + 5% test sample
T2 construct: This liquid contained a mixture of enzymes present in small intestine, such as sucrose, glucoamylase, maltase, and isomaltase; tissue Sigma Corporation; host or cells: rat small intestine (acetone powder), buffer extract, unpurified
T2 sequence (P23739 whole entry): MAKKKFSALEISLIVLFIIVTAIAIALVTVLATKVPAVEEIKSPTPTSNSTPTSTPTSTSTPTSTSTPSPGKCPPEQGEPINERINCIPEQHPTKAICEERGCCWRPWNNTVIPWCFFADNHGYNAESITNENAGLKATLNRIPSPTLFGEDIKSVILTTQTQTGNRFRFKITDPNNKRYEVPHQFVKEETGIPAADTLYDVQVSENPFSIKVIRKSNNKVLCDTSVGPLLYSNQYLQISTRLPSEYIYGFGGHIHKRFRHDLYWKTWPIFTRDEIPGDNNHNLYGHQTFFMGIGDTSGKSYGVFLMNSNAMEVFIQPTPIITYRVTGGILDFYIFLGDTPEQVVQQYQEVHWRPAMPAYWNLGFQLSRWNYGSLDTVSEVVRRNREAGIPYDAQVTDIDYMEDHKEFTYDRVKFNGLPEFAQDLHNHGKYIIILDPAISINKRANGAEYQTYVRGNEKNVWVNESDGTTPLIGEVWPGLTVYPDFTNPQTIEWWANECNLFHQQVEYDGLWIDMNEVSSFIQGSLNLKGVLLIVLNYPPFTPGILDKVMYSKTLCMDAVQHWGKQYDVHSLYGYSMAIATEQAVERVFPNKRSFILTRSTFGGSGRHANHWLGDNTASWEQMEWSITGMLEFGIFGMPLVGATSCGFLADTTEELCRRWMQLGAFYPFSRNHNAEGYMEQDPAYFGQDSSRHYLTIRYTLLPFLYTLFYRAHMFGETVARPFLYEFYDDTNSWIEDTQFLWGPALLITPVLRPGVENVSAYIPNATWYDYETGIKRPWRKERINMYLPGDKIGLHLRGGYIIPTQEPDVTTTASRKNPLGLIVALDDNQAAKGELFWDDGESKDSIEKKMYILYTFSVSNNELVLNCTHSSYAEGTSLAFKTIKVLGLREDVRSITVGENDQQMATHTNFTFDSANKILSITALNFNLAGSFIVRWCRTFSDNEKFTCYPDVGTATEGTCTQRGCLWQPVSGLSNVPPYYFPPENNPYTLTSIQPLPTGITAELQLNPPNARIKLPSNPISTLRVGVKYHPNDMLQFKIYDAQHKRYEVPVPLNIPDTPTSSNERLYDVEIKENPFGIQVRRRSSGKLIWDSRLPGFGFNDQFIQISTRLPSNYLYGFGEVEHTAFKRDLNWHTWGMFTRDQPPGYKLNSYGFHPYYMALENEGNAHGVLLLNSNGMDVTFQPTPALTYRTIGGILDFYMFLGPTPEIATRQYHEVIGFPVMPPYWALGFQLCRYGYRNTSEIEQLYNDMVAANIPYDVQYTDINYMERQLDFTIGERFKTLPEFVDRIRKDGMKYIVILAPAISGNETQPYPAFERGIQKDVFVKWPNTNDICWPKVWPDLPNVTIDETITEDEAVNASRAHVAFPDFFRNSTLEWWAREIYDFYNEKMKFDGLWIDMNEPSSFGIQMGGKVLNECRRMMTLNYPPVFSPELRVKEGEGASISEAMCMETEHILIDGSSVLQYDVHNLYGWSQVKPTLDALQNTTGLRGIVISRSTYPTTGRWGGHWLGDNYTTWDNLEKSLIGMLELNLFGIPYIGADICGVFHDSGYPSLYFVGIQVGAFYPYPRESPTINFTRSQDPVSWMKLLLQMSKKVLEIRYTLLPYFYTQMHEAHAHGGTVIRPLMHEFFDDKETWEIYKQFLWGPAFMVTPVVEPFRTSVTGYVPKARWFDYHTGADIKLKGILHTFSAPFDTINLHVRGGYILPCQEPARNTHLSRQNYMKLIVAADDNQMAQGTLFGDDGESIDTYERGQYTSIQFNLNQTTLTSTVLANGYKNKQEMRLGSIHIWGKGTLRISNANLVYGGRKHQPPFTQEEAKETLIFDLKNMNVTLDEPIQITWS
Experimental: as §1, §2, §3, §4, §5, §6, §7
The procedures in Example 1 were repeated with the exception that the test solutions contained 5% of sucrose and 0.5%, 1.0%, 3.0% or 5.0% of palatinose to examine intensity of the sucrose activity inhibition. A control solution contained 5% of sucrose in 0.1 M phosphate buffer (pH 6.8).
The procedures in Example 1 were repeated with the exception that palatinit and palatinose were used as test samples and sucrose was used as a substrate. The test samples and the substrate were dissolved in 0.1 M phosphate buffer (pH 6.8) to attain the concentration shown in Table 3 to thereby prepare two test solutions. Besides, each one of the test samples or the substrate was dissolved in 0.1 M phosphate buffer (pH 6.8) to attain the concentration shown in Table 3 to thereby prepare control solutions. Each 5 ml of the aforementioned test solutions or the control solutions was subjected to the enzymatic reaction according to the same procedures as in Example 1. The glucose concentration and the fructose concentration were measured. […]

[3] = target: (Homo sapiens, UniProt P14410); conditions: 5-75 mM sucrose as substrate, 5 mM trehalulose as inhibitor; cited from earlier work
[4] = 5% saccharide alone, Example 3 / Test Examples 2, 3
[5] = 5% saccharide alone, Example 5 / Test Example 4
[6] = crude enzyme liquid 0.125 ml, dextrin 2% (Sample 1) or sucrose 26.6 mM (Sample 3)

Row | Compound | Liberated glucose concentration ([1]; 5% saccharide alone, 37° C., 60 min, pH 6.8, Example 1 / Test Example 1) [g/L] | Liberated fructose concentration [1, 4] [g/L] | Liberated glucose concentration [1, 4] [g/L] | Liberated glucose concentration [1, 5] [g/L] | Total concentration of liberated monosaccharides (glucose + fructose) ([1]; control solution with sucrose only, 5%) [g/L] | Mean amount of produced glucose [2, 6] [g/L] | Glucoamylase activity inhibitory effect (in words) (glucoamylase) | Decomposition inhibition ratio, %, against glucoamylase (glucoamylase; Example 6 / Test Example 5) [%] | Liberated glucose concentration (glucoamylase; Example 6 / Test Example 5) [g/L] | Sucrase activity inhibitory effect (in words) (sucrase) | Decomposition inhibition ratio, %, against sucrase (sucrase; Example 5 / Test Example 4) [%] | Liberated glucose concentration (sucrase; Example 5 / Test Example 4) [g/L] | Liberated glucose concentration ([1]; 5% saccharide alone, Example 6 / Test Example 5) [g/L] | Inhibitory effect on the sucrase activity (reported) [3] | Mean amount of produced glucose ([2]; crude enzyme liquid 0.25 ml, dextrin 2% (Sample 2)) [g/L]
1 | OC[C@H]1O[C@@](CO)(O[C@H]2O[C@H](CO)[C@@H](O)[C@H](O)[C@H]2O)[C@@H](O)[C@@H]1O [sucrose] | 0.959 ± 0.022 | 1.09 | 1.01 | 1.628 | 2.10 | 0.474 |  |  |  |  |  |  |  |  | 
2 | trehalulose |  |  |  | 0.558 |  |  | has a glucoamylase activity inhibitory effect | 28 | 2.028 | has the sucrose activity inhibitory effect | 36 | 1.403 | 0.411 | no inhibitory effect | 
3 | dextrin |  |  |  |  |  | 0.057 |  |  |  |  |  |  |  |  | 0.088
